From patent publication US12324802B2, “Modulators of cystic fibrosis transmembrane conductance regulator” (Vertex Pharmaceuticals Incorporated, priority 2020, dated 2025)

The compounds below were run against T1, CFTR (F508del/MF-HBE cells) (Homo sapiens, UniProt P13569, DEL508-508) (assay: Ussing chamber assay of CFTR-mediated short-circuit currents (identification of potentiator compounds)). Settings: CFTR-mediated ISC in F508del/MF-HBE cells; incubated 18-24 hours at 37° C. with 10 μM (14S)-8-[3-(2-{dispiro[2.0.2.1]heptan-7-yl}ethoxy)-1H-pyrazol-1-yl]-...-2,2,4-trione, 20% human serum.
T1 construct: human bronchial epithelial (HBE) cells derived from CF subjects heterozygous for F508del and a minimal function CFTR mutation; endogenous in cells; host or cells: primary human bronchial epithelial cells from CF subjects (F508del/MF genotype)
Assay type: cell-based
Method in brief: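 Short-circuit current was voltage-clamped at 0 mV and 37 °C in pH 7.4 HEPES buffers, with amiloride (30 μM) on the apical side. The CFTR component was defined as forskolin (20 μM) peak minus residual current after BPO/GlyH-101/CFTRinh-172 at 20 μM each. Cells had been pretreated 18–24 h with potentiator concentrations and 10 μM corrector in 20% human serum, kept throughout the measurement.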

T1 sequence (P13569 with tags, fused parts or gaps DEL508-508): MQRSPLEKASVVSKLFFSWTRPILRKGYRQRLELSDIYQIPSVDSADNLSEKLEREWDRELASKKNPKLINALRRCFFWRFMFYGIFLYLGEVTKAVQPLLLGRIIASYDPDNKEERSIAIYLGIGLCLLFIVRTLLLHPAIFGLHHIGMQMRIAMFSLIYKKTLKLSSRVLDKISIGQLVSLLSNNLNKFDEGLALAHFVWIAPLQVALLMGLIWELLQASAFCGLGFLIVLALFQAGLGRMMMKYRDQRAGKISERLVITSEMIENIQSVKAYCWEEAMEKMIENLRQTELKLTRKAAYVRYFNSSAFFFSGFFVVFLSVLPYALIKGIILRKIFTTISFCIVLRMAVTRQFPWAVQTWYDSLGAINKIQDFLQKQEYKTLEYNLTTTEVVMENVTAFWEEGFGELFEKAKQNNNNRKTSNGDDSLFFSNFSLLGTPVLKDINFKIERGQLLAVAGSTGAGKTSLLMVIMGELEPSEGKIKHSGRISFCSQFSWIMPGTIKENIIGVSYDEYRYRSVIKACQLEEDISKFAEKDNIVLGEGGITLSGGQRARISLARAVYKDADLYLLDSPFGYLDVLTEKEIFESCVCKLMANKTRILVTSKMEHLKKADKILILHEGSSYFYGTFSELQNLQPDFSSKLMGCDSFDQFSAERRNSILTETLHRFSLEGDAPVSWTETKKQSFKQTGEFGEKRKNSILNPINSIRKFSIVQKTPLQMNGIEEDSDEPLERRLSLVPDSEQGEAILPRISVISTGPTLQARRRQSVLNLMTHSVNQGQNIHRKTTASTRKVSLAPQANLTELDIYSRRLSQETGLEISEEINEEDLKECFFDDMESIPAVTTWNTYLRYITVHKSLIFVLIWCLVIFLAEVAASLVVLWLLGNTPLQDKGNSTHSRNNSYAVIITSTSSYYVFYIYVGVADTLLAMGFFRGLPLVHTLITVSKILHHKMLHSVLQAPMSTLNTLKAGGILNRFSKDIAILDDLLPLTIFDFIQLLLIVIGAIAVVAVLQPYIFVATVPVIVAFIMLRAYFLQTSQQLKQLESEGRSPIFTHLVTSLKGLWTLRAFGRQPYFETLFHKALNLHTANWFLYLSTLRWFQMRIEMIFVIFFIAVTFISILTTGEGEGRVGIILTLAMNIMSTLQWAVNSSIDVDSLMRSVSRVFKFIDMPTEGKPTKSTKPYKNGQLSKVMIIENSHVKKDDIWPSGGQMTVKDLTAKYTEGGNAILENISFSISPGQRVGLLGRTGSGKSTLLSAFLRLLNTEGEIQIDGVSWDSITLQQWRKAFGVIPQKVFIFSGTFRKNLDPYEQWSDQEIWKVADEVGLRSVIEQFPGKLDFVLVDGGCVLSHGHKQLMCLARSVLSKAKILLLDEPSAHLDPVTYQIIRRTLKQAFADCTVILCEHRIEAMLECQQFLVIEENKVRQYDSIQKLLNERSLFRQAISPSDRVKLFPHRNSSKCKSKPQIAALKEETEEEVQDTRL

Row | EC50 | SMILES
1 | > 1000 nM | Nc1cc(C(F)(F)F)c2nc1-c1nnc(o1)/C(C(F)(F)F)=C\CCCC[C@@H]1CCCN21 [Compound 10, (6E,12R)-6,18-bis(trifluoromethyl)-22-oxa-3,4,16,21-tetraazatetracyclo[15.3.1.12,5.012,16]docosa-1(21),2,4,6,17,19-hexaen-20-amine]
2 | < 500 nM | CNc1cc(C(F)(F)F)c2nc1-c1nnc(o1)[C@@](O)(C(F)(F)F)CCCCC[C@@H]1CCCN21 [Compound 13, (6R,12R)-20-(methylamino)-6,18-bis(trifluoromethyl)-22-oxa-3,4,16,21-tetraazatetracyclo[15.3.1.12,5.012,16]docosa-1(21),2,4,17,19-pentaen-6-ol]
3 | < 500 nM | CCNc1cc(C(F)(F)F)c2nc1-c1nnc(o1)[C@@](O)(C(F)(F)F)CCCCC[C@@H]1CCCN21 [Compound 14, (6R,12R)-20-(ethylamino)-6,18-bis(trifluoromethyl)-22-oxa-3,4,16,21-tetraazatetracyclo[15.3.1.12,5.012,16]docosa-1(21),2,4,17,19-pentaen-6-ol]
4 | > 1000 nM | CNc1cc(C(F)(F)F)c2nc1-c1nnc(o1)[C@](O)(C(F)(F)F)CCCCC[C@@H]1CCCN21 [Compound 15, (6S,12R)-20-(methylamino)-6,18-bis(trifluoromethyl)-22-oxa-3,4,16,21-tetraazatetracyclo[15.3.1.12,5.012,16]docosa-1(21),2,4,17,19-pentaen-6-ol]
5 | > 1000 nM | CCNc1cc(C(F)(F)F)c2nc1-c1nnc(o1)[C@](O)(C(F)(F)F)CCCCC[C@@H]1CCCN21 [Compound 16, (6S,12R)-20-(ethylamino)-6,18-bis(trifluoromethyl)-22-oxa-3,4,16,21-tetraazatetracyclo[15.3.1.12,5.012,16]docosa-1(21),2,4,17,19-pentaen-6-ol]
6 | < 500 nM | Nc1cc(C(F)(F)F)c2nc1-c1nnc(o1)C(O)(C(F)(F)F)CCCCC1CCCN21 (centres unmarked) [Compound 17, 19-amino-6,17-bis(trifluoromethyl)-21-oxa-3,4,15,20-tetraazatetracyclo[14.3.1.12,5.011,15]henicosa-1(20),2,4,16,18-pentaen-6-ol]
7 | < 500 nM | Nc1cc(C(F)(F)F)c2nc1-c1nnc(o1)C(O)(C(F)(F)F)CCCCC1CCCN21 (centres unmarked) [Compound 18, 19-amino-6,17-bis(trifluoromethyl)-21-oxa-3,4,15,20-tetraazatetracyclo[14.3.1.12,5.011,15]henicosa-1(20),2,4,16,18-pentaen-6-ol]
8 | < 500 nM | Nc1cc(C(F)(F)F)c2nc1-c1nnc(o1)C(=NO)CCCCC[C@@H]1CCCN21 [Compound 31, (12R)-6-(hydroxyimino)-18-(trifluoromethyl)-22-oxa-3,4,16,21-tetraazatetracyclo[15.3.1.12,5.012,16]docosa-1(21),2,4,17,19-pentaen-20-amine]
9 | < 500 nM | Nc1cc(C(F)(F)F)c2nc1-c1nnc(o1)C(=O)CCCCC[C@@H]1CCCN21 [Compound 36, (12R)-20-amino-18-(trifluoromethyl)-22-oxa-3,4,16,21-tetraazatetracyclo[15.3.1.12,5.012,16]docosa-1(21),2,4,17,19-pentaen-6-one]
10 | < 500 nM | CN1CCCCCCC(=O)C2=NN=C(O2)c2nc1c(C(F)(F)F)cc2N [Compound 58, 17-amino-13-methyl-15-(trifluoromethyl)-19-oxa-3,4,13,18-tetrazatricyclo[12.3.1.12,5]nonadeca-1(18),2,4,14,16-pentaen-6-one]
11 | < 500 nM | Nc1cc(C(F)(F)F)c2nc1-c1nnc(o1)[C@](O)(C(F)(F)F)c1cc(ccc1F)CCC[C@@H]1CCCN21 [Compound 59, (6S,15R)-23-amino-8-fluoro-6,21-bis(trifluoromethyl)-26-oxa-3,4,19,24-tetraazapentacyclo[18.3.1.12,5.17,11.015,19]hexacosa-1(24),2,4,7(25),8,10,20,22-octaen-6-ol]
12 | < 500 nM | Nc1cc(C(F)(F)F)c2nc1-c1nnc(o1)[C@@](O)(C(F)(F)F)c1cc(ccc1F)CCC[C@@H]1CCCN21 [Compound 60, (6R,15R)-23-amino-8-fluoro-6,21-bis(trifluoromethyl)-26-oxa-3,4,19,24-tetraazapentacyclo[18.3.1.12,5.17,11.015,19]hexacosa-1(24),2,4,7(25),8,10,20,22-octaen-6-ol]
13 | > 1000 nM | Nc1cc(C(F)(F)F)c2nc1-c1nnc(o1)-c1c(O)cccc1CCCC[C@@H]1CCCN21 [Compound 134, (16R)-24-amino-22-(trifluoromethyl)-26-oxa-3,4,20,25-tetraazapentacyclo[19.3.1.12,5.06,11.016,20]hexacosa-1(25),2,4,6(11),7,9,21,23-octaen-7-ol]
14 | < 500 nM | CC1(C)CC2CCCc3ccc(F)c(c3)C(O)(C(F)(F)F)C3=NN=C(O3)c3nc(c(C(F)(F)F)cc3N)N2C1 (centres unmarked) [Compound 135, 23-amino-8-fluoro-17,17-dimethyl-6,21-bis(trifluoromethyl)-26-oxa-3,4,19,24-tetraazapentacyclo[18.3.1.12,5.17,11.015,19]hexacosa-1(24),2,4,7(25),8,10,20,22-octaen-6-ol]
15 | < 500 nM | CC1(C)CC2CCCc3ccc(F)c(c3)C(O)(C(F)(F)F)C3=NN=C(O3)c3nc(c(C(F)(F)F)cc3N)N2C1 (centres unmarked) [Compound 136, 23-amino-8-fluoro-17,17-dimethyl-6,21-bis(trifluoromethyl)-26-oxa-3,4,19,24-tetraazapentacyclo[18.3.1.12,5.17,11.015,19]hexacosa-1(24),2,4,7(25),8,10,20,22-octaen-6-ol]
16 | < 500 nM | Nc1cc(Br)c2nc1-c1nnc(o1)C(O)(C(F)(F)F)CCCCC[C@@H]1CCCN21 (stereo partly drawn) [Compound 144, (12R)-20-amino-18-bromo-6-(trifluoromethyl)-22-oxa-3,4,16,21-tetraazatetracyclo[15.3.1.12,5.012,16]docosa-1(21),2,4,17,19-pentaen-6-ol]
17 | < 500 nM | Nc1cc(Sc2ccc(OC(F)(F)F)cc2)c2nc1-c1nnc(o1)C(O)(C(F)(F)F)CCCCC[C@@H]1CCCN21 (stereo partly drawn) [Compound 146, (12R)-20-amino-18-{[4-(trifluoromethoxy)phenyl]sulfanyl}-6-(trifluoromethyl)-22-oxa-3,4,16,21-tetraazatetracyclo[15.3.1.12,5.012,16]docosa-1(21),2,4,17,19-pentaen-6-ol]
18 | < 500 nM | Nc1cc(C(F)(F)F)c2nc1-c1nnc(o1)C(O)(C(F)(F)F)CCCOC[C@@H]1CCCN21 (stereo partly drawn) [Compound 147, (12S)-20-amino-6,18-bis(trifluoromethyl)-10,22-dioxa-3,4,16,21-tetraazatetracyclo[15.3.1.12,5.012,16]docosa-1(21),2,4,17,19-pentaen-6-ol]
19 | > 1000 nM | Nc1cc(C(F)(F)F)c2nc1-c1nnc(o1)[C@@](O)(C(F)(F)F)CCCCCC(C(=O)N1CCCC1)N2 (stereo partly drawn) [Compound 154, [(6R)-17-amino-6-hydroxy-6,15-bis(trifluoromethyl)-19-oxa-3,4,13,18-tetrazatricyclo[12.3.1.12,5]nonadeca-1(18),2,4,14,16-pentaen-12-yl]-pyrrolidin-1-yl-methanone]
20 | < 500 nM | CC1(C)CCCCC[C@](O)(C(F)(F)F)C2=NN=C(O2)c2nc(c(C(F)(F)F)cc2N)N1 [Compound 163, (6R)-17-amino-12,12-dimethyl-6,15-bis(trifluoromethyl)-19-oxa-3,4,13,18-tetrazatricyclo[12.3.1.12,5]nonadeca-1(18),2,4,14,16-pentaen-6-ol]
21 | > 1000 nM | CC1(C)CCCCC[C@@](O)(C(F)(F)F)C2=NN=C(O2)c2nc(c(C(F)(F)F)cc2N)N1 [Compound 165, (6S)-17-Amino-12,12-dimethyl-6,15-bis(trifluoromethyl)-19-oxa-3,4,13,18-tetrazatricyclo[12.3.1.12,5]nonadeca-1(18),2,4,14,16-pentaen-6-ol]
22 | < 500 nM | Nc1cc(C(F)(F)F)c2nc1-c1nnc(o1)[C@@](O)(C(F)(F)F)CCCCCC(c1ccccn1)N2 (stereo partly drawn) [Compound 166, (6R)-17-amino-12-(2-pyridyl)-6,15-bis(trifluoromethyl)-19-oxa-3,4,13,18-tetrazatricyclo[12.3.1.12,5]nonadeca-1(18),2,4,14,16-pentaen-6-ol]
23 | < 500 nM | Nc1cc(C(F)(F)F)c2nc1-c1nnc(o1)[C@@](O)(C(F)(F)F)CCCCCC1(CCC1)N2 [Compound 173, (6R)-17-amino-6,15-bis(trifluoromethyl)spiro[19-oxa-3,4,13,18-tetrazatricyclo[12.3.1.12,5]nonadeca-1(18),2,4,14,16-pentaene-12,1′-cyclobutane]-6-ol]
24 | < 500 nM | [2H]C([2H])([2H])C1(C([2H])([2H])[2H])CCCCC[C@](O)(C(F)(F)F)C2=NN=C(O2)c2nc(c(C(F)(F)F)cc2N)N1 [Compound 176, (6R)-17-amino-12,12-bis(trideuteriomethyl)-6,15-bis(trifluoromethyl)-19-oxa-3,4,13,18-tetrazatricyclo[12.3.1.12,5]nonadeca-1(18),2,4,14,16-pentaen-6-ol]
25 | < 500 nM | Nc1cc(C(F)(F)F)c2nc1-c1nnc(o1)[C@@](O)(C(F)(F)F)CCCCCC1(CCCC1)N2 [Compound 177, (6R)-17-amino-6,15-bis(trifluoromethyl)spiro[19-oxa-3,4,13,18-tetrazatricyclo[12.3.1.12,5]nonadeca-1(18),2,4,14,16-pentaene-12,1′-cyclopentane]-6-ol]
26 | < 500 nM | CC1(C)CNc2nc(c(N)cc2C(F)(F)F)C2=NN=C(O2)[C@@](O)(C(F)(F)F)CCCO1 [Compound 186, (6R)-17-amino-11,11-dimethyl-6,15-bis(trifluoromethyl)-10,19-dioxa-3,4,13,18-tetrazatricyclo[12.3.1.12,5]nonadeca-1(17),2,4,14(18),15-pentaen-6-ol]
